Biological target: T1, NKA receptor (Mesocricetus auratus, UniProt P51144)
T1 construct: from tissue; host or cells: hamster respiratory tract (trachea) ring specimens
T1 sequence (P51144 1-384): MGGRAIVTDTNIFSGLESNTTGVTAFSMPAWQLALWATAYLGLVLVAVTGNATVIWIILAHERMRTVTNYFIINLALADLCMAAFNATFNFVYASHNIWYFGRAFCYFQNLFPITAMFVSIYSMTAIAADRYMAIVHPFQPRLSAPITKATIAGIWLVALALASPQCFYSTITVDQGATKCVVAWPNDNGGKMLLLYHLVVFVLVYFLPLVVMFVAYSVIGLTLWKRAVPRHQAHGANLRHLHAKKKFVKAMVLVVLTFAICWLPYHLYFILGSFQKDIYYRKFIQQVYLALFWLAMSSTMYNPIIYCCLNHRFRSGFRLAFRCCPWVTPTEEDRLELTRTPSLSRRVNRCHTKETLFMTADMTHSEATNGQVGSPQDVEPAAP
Test: Activity to constriction of hamster respiratory tracts caused by NKA (isolated tissue, tension)
Assay type: cell-based
Procedure: The activity of the azapeptide derivative of the present invention to a NKA receptor was evaluated by the following method.
(1) Activity to constriction of hamster respiratory tracts caused by NKA
Respiratory tracts were taken out from male Syrian strain Golden hamsters having a body weight of 100 to 180 g, and cyclic specimens having a width of 3 to 6 mm were prepared. The specimens were incubated at 37° C. and suspended by loading a static tension of 0.5 g, in a reaction tank charged with 15 ml of a Tyrode solution (137 mM of NaCl, 2.7 mM of KCl, 1.8 mM of CaCl2, 1.02 mM of MgCl2, 11.9 mM of NaHCO3, 0.42 mM of NaH2 PO4 and 5.5 mM of glucose) in which 95% O2 -5% CO2 had been passed.
The compound to be tested was charged into the reaction tank and maintained for 5 minutes. 1×10^-7 M of NKA was charged into the reaction tank, and tension caused thereby was recorded. The examined effect of the tested compound as an antagonist was shown by IC50.

| Compound | IC50 [nM] |
| --- | --- |
| CC(C)(C)OC(=O)N[C@@H](CC(=O)OCc1ccccc1)C(=O)N[C@@H](CCC(N)=O)C(=O)N[C@H](Cc1c[nH]c2ccccc12)C(=O)NN(Cc1ccccc1)C(N)=O [Example 27 (3), Boc-Asp(OBzl)-Gln-D-Trp-AzPhe-NH2] | 990 |
| CC(C)(C)OC(=O)N[C@@H](CCC(N)=O)C(=O)N[C@@H](Cc1c[nH]c2ccccc12)C(=O)NN(Cc1ccccc1)C(=O)NCc1ccc(F)cc1 [Example 17 (2), Boc-Gln-Trp-AzPhe-NHCH2 Ph(4-F)] | 29 |
| CC(C)(C)OC(=O)N[C@@H](CCCN)C(=O)N[C@@H](Cc1c[nH]c2ccccc12)C(=O)NN(Cc1ccccc1)C(=O)NCCOCc1ccccc1 [Example 13 (2), Boc-Orn-Trp-AzPhe-NH(CH2)2 OCH2 Ph] | 78 |
| Cc1ccc(CN(NC(=O)[C@H](Cc2c[nH]c3ccccc23)NC(=O)[C@H](CCC(N)=O)NC(=O)NC(C)(C)C)C(=O)NCCOCc2ccccc2)c(C)c1 [Example 37 (3), t-Bu-NHCO-Gln-Trp-AzPhe(2,4-diMe)-NH(CH2)2 OCH2 Ph] | 0.27 |
| Cc1ccccc1CN(NC(=O)[C@H](Cc1c[nH]c2ccccc12)NC(=O)[C@H](CCC(N)=O)NC(=O)NC(C)(C)C)C(=O)NCCOCc1ccccc1 [Example 33 (3), t-Bu-NHCO-Gln-Trp-AzPhe(2-Me)-NH(CH2)2 OCH2 Ph] | 0.16 |
| CC(C)(C)OC(=O)N[C@@H](CC(=O)OCc1ccccc1)C(=O)N[C@@H](CCC(N)=O)C(=O)N[C@@H](Cc1c[nH]c2ccccc12)C(=O)NN(Cc1ccccc1)C(=O)OCc1ccccc1 [Example 28 (3), Boc-Asp(OBzl)-Gln-Trp-AzPhe-OBzl] | 27 |
| CC(C)(C)OC(=O)N[C@@H](CC(=O)OCc1ccccc1)C(=O)N[C@@H](CCC(N)=O)C(=O)N[C@@H](Cc1c[nH]c2ccccc12)C(=O)NN(Cc1ccccc1)C(=O)N1CCOCC1 [Example 26 (3), Boc-Asp(OBzl)-Gln-Trp-AzPhe-M] | 830 |
| CC(C)(C)OC(=O)N[C@@H](CCCNC(=O)OCc1ccccc1)C(=O)N[C@@H](Cc1c[nH]c2ccccc12)C(=O)NN(Cc1ccccc1)C(=O)NCCOCc1ccccc1 [Example 13 (1), Boc-Orn(Z)-Trp-AzPhe-NH (CH2)2 OCH2 Ph] | 80 |
| CC(C)(C)OC(=O)N[C@@H](CCS(C)(=O)=O)C(=O)N[C@@H](Cc1c[nH]c2ccccc12)C(=O)NN(Cc1ccccc1)C(=O)NCCOCc1ccccc1 [Example 9, Boc-Met(O2)-Trp-AzPhe-NH (CH2)2 OCH2 Ph] | 1.4 |
| CC(C)(C)OC(=O)N[C@@H](CCCNC(N)=O)C(=O)N[C@@H](Cc1c[nH]c2ccccc12)C(=O)NN(Cc1ccccc1)C(=O)NCCOCc1ccccc1 [Example 14, Boc-Cit-Trp-AzPhe-NH(CH2)2 OCH2 Ph] | 24 |
| CSCC[C@H](NC(=O)OC(C)(C)C)C(=O)N[C@@H](Cc1c[nH]c2ccccc12)C(=O)NN(Cc1ccccc1)C(=O)NCCOCc1ccccc1 [Example 11, Boc-Met-Trp-AzPhe-NH(CH2)2 OCH2 Ph] | 8.9 |
| CC(C)(C)OC(=O)N[C@@H](CC(=O)OCc1ccccc1)C(=O)N[C@@H](CCC(N)=O)C(=O)N[C@@H](Cc1c[nH]c2ccccc12)C(=O)NN(Cc1ccccc1)C(=O)Nc1ccccc1 [Example 29 (3, Boc-Asp(OBzl)-Gln-Trp-AzPhe-NHPh] | 190 |
| CC(C)(C)OC(=O)N[C@@H](CC(=O)OCc1ccccc1)C(=O)N[C@@H](CCC(N)=O)C(=O)N[C@@H](Cc1c[nH]c2ccccc12)C(=O)NN(Cc1ccccc1)C(=O)NCCOCc1ccccc1 [Example 2 (3), Boc-Asp(OBzl)-Gln-Trp-AzPhe-NH(CH2)2 OCH2 Ph] | 1.9 |
| Cc1cccc(CN(NC(=O)[C@H](Cc2c[nH]c3ccccc23)NC(=O)[C@H](CCC(N)=O)NC(=O)NC(C)(C)C)C(=O)NCCOCc2ccccc2)c1 [Example 34 (3), t-Bu-NHCO-Gln-Trp-AzPhe(3-Me)-NH(CH2)2 OCH2 Ph] | 3.9 |
| CC(C)(C)OC(=O)N[C@@H](Cc1c[nH]c2ccccc12)C(=O)NN(Cc1ccccc1)C(=O)NCCOCc1ccccc1 [Example 2 (1), Boc-Trp-AzPhe-NH(CH2)2 OCH2 Ph] | 310 |
| CC(C)(C)NC(=O)N[C@@H](CCC(N)=O)C(=O)N[C@@H](Cc1c[nH]c2ccccc12)C(=O)NN(Cc1ccccc1)C(=O)NCCOCc1ccccc1 [Example 6, t-Bu-NHCO-Gln-Trp-AzPhe-NH(CH2)2 OCH2 Ph] | 0.6 |
| CC(C)(C)NC(=O)N[C@@H](CCC(N)=O)C(=O)N[C@@H](Cc1c[nH]c2ccccc12)C(=O)NN(Cc1ccccc1)C(=O)NCCOC(c1ccccc1)c1ccccc1 [Example 44 (2), t-Bu-NHCO-Gln-Trp-AzPhe-NH(CH2)2 O-benzhydryl] | 230 |

| Compound | IC50 [nM] |
| --- | --- |
| CC(C)(C)OC(=O)N[C@@H](CCC(N)=O)C(=O)N[C@@H](Cc1c[nH]c2ccccc12)C(=O)NN(Cc1ccc(F)cc1)C(=O)NCCOCc1ccccc1 [Example 30 (2), Boc-Gln-Trp-AzPhe(4-F)-NH(CH2)2 OCH2 Ph] | 1.1 |
| CC(C)(C)OC(=O)N[C@@H](CCC(N)=O)C(=O)N[C@@H](Cc1c[nH]c2ccccc12)C(=O)NN(Cc1ccccc1)C(=O)NCCOCc1ccc(F)cc1 [Example 18 (2), Boc-Gln-Trp-AzPhe-NH(CH2)2 OCH2 Ph(4-F)] | 5.6 |
| COc1ccc(CNC(=O)N(Cc2ccccc2)NC(=O)[C@H](Cc2c[nH]c3ccccc23)NC(=O)[C@H](CCC(N)=O)NC(=O)[C@H](CC(=O)OCc2ccccc2)NC(=O)OC(C)(C)C)c(OC)c1 [Example 22, Boc-Asp(OBzl)-Gln-Trp-AzPhe-NHDmob] | 4900 |
| Cc1ccc(CN(NC(=O)[C@H](Cc2c[nH]c3ccccc23)NC(=O)[C@H](CCC(N)=O)NC(=O)NC(C)(C)C)C(=O)NCCOCc2ccccc2)cc1 [Example 35 (3), t-Bu-NHCO-Gln-Trp-AzPhe(4-Me)-NH(CH2)2 OCH2 Ph] | 0.82 |
| NC(=O)CC[C@H](NC(=O)c1ccccc1)C(=O)N[C@@H](Cc1c[nH]c2ccccc12)C(=O)NN(Cc1ccccc1)C(=O)NCCOCc1ccccc1 [Example 4, Bz-Gln-Trp-AzPhe-NH(CH2)2 OCH2 Ph] | 2.3 |
| CNC(=O)N(Cc1ccccc1)NC(=O)[C@H](Cc1c[nH]c2ccccc12)NC(=O)[C@H](CCC(N)=O)NC(=O)[C@H](CC(=O)OCc1ccccc1)NC(=O)OC(C)(C)C [Example 23 (3), Boc-Asp(OBzl)-Gln-Trp-AzPhe-NHCH3] | 78 |
| CC(C)(C)OC(=O)N[C@@H](CC(=O)OCc1ccccc1)C(=O)N[C@@H](Cc1c[nH]c2ccccc12)C(=O)NN(Cc1ccccc1)C(=O)NCCOCc1ccccc1 [Example 16 (1), Boc-Asp(OBzl)-Trp-AzPhe-NH(CH2)2 OCH2 Ph] | 13 |
| NC(=O)CC[C@H](NC(=O)C1CCCC1)C(=O)N[C@@H](Cc1c[nH]c2ccccc12)C(=O)NN(Cc1ccccc1)C(=O)NCCOCc1ccccc1 [Example 5, cyPent-CO-Gln-Trp-AzPhe-NH(CH2)2 OCH2 Ph] | 2.2 |
| CC(C)CCC(=O)N[C@@H](CC(=O)OCc1ccccc1)C(=O)N[C@@H](CCC(N)=O)C(=O)N[C@@H](Cc1c[nH]c2ccccc12)C(=O)NN(Cc1ccccc1)C(=O)NCc1ccccc1 [Example 21, i-Pent-CO-Asp(OBzl)-Gln-Trp-AzPhe-NHCH2 Ph] | 1.7 |
| CC(C)(C)OC(=O)N[C@@H](CC(=O)OCc1ccccc1)C(=O)N[C@@H](CCC(N)=O)C(=O)N[C@@H](Cc1c[nH]c2ccccc12)C(=O)NN(Cc1ccccc1)C(=O)NCc1ccccc1 [Example 20 (3), Boc-Asp(OBzl)-Gln-Trp-AzPhe-NHCH2 Ph] | 1.7 |
| CC(C)(C)NC(=O)N[C@@H](CCC(N)=O)C(=O)N[C@@H](Cc1c[nH]c2ccccc12)C(=O)NN(Cc1ccccc1F)C(=O)NCCOCc1ccccc1 [Example 39 (3), t-Bu-NHCO-Gln-Trp-AzPhe(2-F)-NH(CH2)2 OCH2 Ph] | 0.61 |
| NC(=O)CC[C@H](NC(=O)NC1CCCC1)C(=O)N[C@@H](Cc1c[nH]c2ccccc12)C(=O)NN(Cc1ccccc1)C(=O)NCCOCc1ccccc1 [Example 8, cyPent-NHCO-Gln-Trp-AzPhe-NH (CH2)2 OCH2 Ph] | 0.7 |
| CC(C)(C)NC(=O)N[C@@H](CCC(N)=O)C(=O)N[C@@H](Cc1c[nH]c2ccccc12)C(=O)NN(Cc1ccccc1)C(=O)NCCOCc1cccnc1 [Example 42 (3), t-Bu-NHCO-Gln-Trp-AzPhe-NH(CH2)2 O-(3-pyridylmethyl)] | 16 |
| CC(C)CNC(=O)N(Cc1ccccc1)NC(=O)[C@H](Cc1c[nH]c2ccccc12)NC(=O)[C@H](CCC(N)=O)NC(=O)[C@H](CC(=O)OCc1ccccc1)NC(=O)OC(C)(C)C [Example 25 (3), Boc-Asp(OBzl)-Gln-Trp-AzPhe-NHCH2 CH(CH3)2] | 34 |
| CC(C)(C)OC(=O)N[C@@H](CC(=O)OCc1ccccc1)C(=O)N[C@@H](CCC(N)=O)C(=O)N[C@@H](Cc1c[nH]c2ccccc12)C(=O)NN(Cc1ccccc1)C(N)=O [Example 1 (3), Boc-Asp(OBzl)-Gln-Trp-AzPhe-NH2] | 45 |
| CC(C)(C)OC(=O)N[C@@H](CC(=O)OCc1ccccc1)C(=O)N[C@@H](CCC(N)=O)C(=O)N[C@@H](Cc1c[nH]c2ccccc12)C(=O)NN(Cc1ccccc1)C(=O)NCCc1ccccc1 [Example 19 (3), Boc-Asp(OBzl)-Gln-Trp-AzPhe-NH(CH2)2 Ph] | 5.3 |
